The values that follow come from patent publication US20090036516A1, “COMPOUNDS FOR TREATING METABOLIC SYNDROME” (CTG PHARMA S.R.L., priority 2003, published 2009).

Experiment [1] deals with high-fat diet fed insulin resistant mice. Kind of experiment: hyperinsulinemic euglycemic clamp in high-fat diet fed insulin resistant mice. It counts as in vivo. The settings on record: 50 mg/kg/day by gavage for 7 days; steady state phase of hyperinsulinemic euglycemic clamp; n = 8. The method, then:
The effects of administration of 50 mg/kg/day of the compound of Example 2, by gavages to high-fat diet fed insulin resistant mice [Cook et al. Diabetes, 53:2067-72, 2004] for 7 days, in terms of glucose infusion rate (mg/kg per min, during the steady state phase of hyperinsulinemic euglycemic clamp studies) were reported in the following table 1: […]

The next experiment concerns male Wistar rats. Nature of the experiment: oxidative stress-induced (BSO) hypertension in rats. It counts as in vivo. The settings on record: BSO 30 mmol/L/day in drinking water for seven days; compound 50 mg/kg/day for seven days. From the text:
It is widely known that metabolic syndrome is generally accompanied by oxidative stress. Also in the paper of Ogihara (Ogihara T. et al. “Oxidative stress induces insulin resistance by activating the nuclear factor-kB pathway and disrupting normal subcellular distribution of phosphatidylinositol 3-kinase” in Diabetologia 47, 794-805 (2004) such relationship was found. The effect of oxidative stress-induced hypertension in rats has been evaluated in male Wistar rats (10 animals/group). Hypertension was induced by oral administration of buthionine sulphoximine (BSO) (30 mmol/L/day) to the drinking water for seven days.
Compounds of examples 2, 3 and 5 suspended in the vehicle at the dose of 50 mg/kg/day were administered for seven days and some parameters measured in the experiments are reported in table 2.

The test system of experiment [2] is patients with type II diabetes. The settings on record: oral 600 mg once to 3 times a day; cited from earlier work.
Experiment [3] deals with patients with type II diabetes. The settings on record: single parenteral dose of 1,000 mg; cited from earlier work.
A further experiment concerns diabetic neuropathy. As to conditions: intravenous 600 mg a day for 3 weeks; cited from earlier work.

`CC(=O)Oc1ccccc1C(=O)Oc1ccc(-c2cc(=S)ss2)cc1` [Cpd Ex 5, 2-acetoxy-benzoic acid 4-(thioxo-5H-[1,2]dithiol-3-yl)-phenyl ester]: the glucose infusion rate in experiment [1] is given as 86.4 mg/kg per min. Besides, in the experiment with male Wistar rats, the “% Increase systolic blood pressure” value turned out to be 10%, the “% Plasma glutathione decrease” value is listed as 5% and the “Endothelium function (% contraction induced by acetylcholine)” value was determined as 88%.
Consider `O=C(Oc1ccc(-c2cc(=S)ss2)cc1)c1ccccc1O` [Cpd Ex 8, 2-hydroxybenzoic acid 4-(thioxo-5H-[1,2]dithiol-3-yl)-phenyl ester], for which, in the experiment on male Wistar rats, the “% Increase systolic blood pressure” value was determined as 15%, the “% Plasma glutathione decrease” value came to 7% and the “Endothelium function (% contraction induced by acetylcholine)” value is given as 80%.
The matching figures for `CCOC(=O)c1ccccc1OC(=O)CCCCC1CCSS1` (stereo not shown) [Cpd Ex 6, 2-(5-[1,2]Dithiolan-3-yl-pentanoyloxy)-benzoic acid ethyl ester]: 50%, 20% and 60%.
Consider `O=C(O)CCCC[C@@H]1CCSS1` (racemic) [lipoic acid], for which the insulin sensitivity entry in experiment [2] is “able to influence the insulin sensitivity”. The glucose utilization entry in experiment [3] is recorded as “distinct improvement”. Further, the symptomatic complaints entry in the experiment with diabetic neuropathy was “decreased”.
